Key:
[1] = test system: IgE antibodies in sera from birch pollen allergic patients; assay: ELISA detection of peptide- and rBet v 1-specific IgE antibodies; format: binding, human
Description: Birch pollen allergic patients suffering from allergic rhinoconjunctivitis and/or asthma to birch pollen and related allergens were selected according to case history indicative for seasonal birch pollinosis and characterized by skin prick testing with birch pollen extract and serological CAP RAST (Pharmacia Diagnostics, Uppsala, Sweden) testing. Total IgE levels in the sera were determined by CAP RIST measurements (Pharmacia). […] Sera from 60 birch pollen allergic patients and a non-atopic individual were used for IgE competition studies. The birch pollen allergic patients group consisted of 25 males and 35 females with a mean age of 37 years (ranging from 19-60 years) (Table 2).
Subsequently, plates were incubated with 1:3 diluted sera from 60 birch pollen allergic patients and from a non-atopic individual overnight at 4° C. Bound IgE antibodies were detected with a 1:1000 diluted alkaline-phosphatase-coupled mouse monoclonal anti-human IgE antibody (Pharmingen, San Diego, Calif.).

[2] = test system: birch pollen allergic patients; assay: Skin prick testing of allergic patients; format: in vivo, human; conditions: 100 μg/ml
Description: SPTs were performed on the individuals forearms as described ([…]. et al. (1997) J. Clin Invest. 99, 1673-168; Dreborg S: (1989) J. Am. Acad. DerMatol. 21, 820-821). […] In addition standardized skin prick solutions (birch pollen extract and histamine) (Allergopharma, Reinbek, Germany) were tested. Reactions were recorded 20 minutes after SPT by photography and by transferring the ballpoint pen-surrounded wheal area with a scotch tape to paper.

## CVDHTNFKYNYSVIEGGPIGDTLEKISNEIK [Peptide P6, Bet v 1-derived synthetic peptide, position aa 75-104, one cysteine added]
[1]; serum of NHS, non-allergic control individual
  IgE (OD): — (Dashes indicate reactivities below the cut-off level (OD=0.050))
[1]; serum of patient 1
  IgE (OD): — (Dashes indicate reactivities below the cut-off level (OD=0.050))
[1]; serum of patient 2
  IgE (OD): — (Dashes indicate reactivities below the cut-off level (OD=0.050))
[1]; serum of patient 3
  IgE (OD): — (Dashes indicate reactivities below the cut-off level (OD=0.050))
[1]; serum of patient 4
  IgE (OD): — (Dashes indicate reactivities below the cut-off level (OD=0.050))
[1]; serum of patient 5
  IgE (OD): — (Dashes indicate reactivities below the cut-off level (OD=0.050))
[1]; serum of patient 6
  IgE (OD): — (Dashes indicate reactivities below the cut-off level (OD=0.050))
[1]; serum of patient 7
  IgE (OD): — (Dashes indicate reactivities below the cut-off level (OD=0.050))
[1]; serum of patient 8
  IgE (OD): — (Dashes indicate reactivities below the cut-off level (OD=0.050))
[1]; serum of patient 9
  IgE (OD): — (Dashes indicate reactivities below the cut-off level (OD=0.050))
[1]; serum of patient 10
  IgE (OD): — (Dashes indicate reactivities below the cut-off level (OD=0.050))
[1]; serum of patient 11
  IgE (OD): — (Dashes indicate reactivities below the cut-off level (OD=0.050))
[1]; serum of patient 12
  IgE (OD): — (Dashes indicate reactivities below the cut-off level (OD=0.050))
[1]; serum of patient 13
  IgE (OD): — (Dashes indicate reactivities below the cut-off level (OD=0.050))
[1]; serum of patient 14
  IgE (OD): — (Dashes indicate reactivities below the cut-off level (OD=0.050))
[1]; serum of patient 15
  IgE (OD): — (Dashes indicate reactivities below the cut-off level (OD=0.050))
[1]; serum of patient 16
  IgE (OD): — (Dashes indicate reactivities below the cut-off level (OD=0.050))
[1]; serum of patient 17
  IgE (OD): — (Dashes indicate reactivities below the cut-off level (OD=0.050))
[1]; serum of patient 18
  IgE (OD): — (Dashes indicate reactivities below the cut-off level (OD=0.050))
[1]; serum of patient 19
  IgE (OD): — (Dashes indicate reactivities below the cut-off level (OD=0.050))
[1]; serum of patient 20
  IgE (OD): — (Dashes indicate reactivities below the cut-off level (OD=0.050))
[1]; serum of patient 21
  IgE (OD): — (Dashes indicate reactivities below the cut-off level (OD=0.050))
[1]; serum of patient 22
  IgE (OD): — (Dashes indicate reactivities below the cut-off level (OD=0.050))
[1]; serum of patient 23
  IgE (OD): — (Dashes indicate reactivities below the cut-off level (OD=0.050))
[1]; serum of patient 24
  IgE (OD): — (Dashes indicate reactivities below the cut-off level (OD=0.050))
[1]; serum of patient 25
  IgE (OD): — (Dashes indicate reactivities below the cut-off level (OD=0.050))
[1]; serum of patient 26
  IgE (OD): — (Dashes indicate reactivities below the cut-off level (OD=0.050))
[1]; serum of patient 27
  IgE (OD): — (Dashes indicate reactivities below the cut-off level (OD=0.050))
[1]; serum of patient 28
  IgE (OD): — (Dashes indicate reactivities below the cut-off level (OD=0.050))
[1]; serum of patient 29
  IgE (OD): — (Dashes indicate reactivities below the cut-off level (OD=0.050))
[1]; serum of patient 30
  IgE (OD): — (Dashes indicate reactivities below the cut-off level (OD=0.050))
[1]; serum of patient 31
  IgE (OD): — (Dashes indicate reactivities below the cut-off level (OD=0.050))
[1]; serum of patient 32
  IgE (OD): — (Dashes indicate reactivities below the cut-off level (OD=0.050))
[1]; serum of patient 33
  IgE (OD): — (Dashes indicate reactivities below the cut-off level (OD=0.050))
[1]; serum of patient 34
  IgE (OD): — (Dashes indicate reactivities below the cut-off level (OD=0.050))
[1]; serum of patient 35
  IgE (OD): — (Dashes indicate reactivities below the cut-off level (OD=0.050))
[1]; serum of patient 36
  IgE (OD): — (Dashes indicate reactivities below the cut-off level (OD=0.050))
[1]; serum of patient 37
  IgE (OD): — (Dashes indicate reactivities below the cut-off level (OD=0.050))
[1]; serum of patient 38
  IgE (OD): — (Dashes indicate reactivities below the cut-off level (OD=0.050))
[1]; serum of patient 39
  IgE (OD): — (Dashes indicate reactivities below the cut-off level (OD=0.050))
[1]; serum of patient 40
  IgE (OD): — (Dashes indicate reactivities below the cut-off level (OD=0.050))
[1]; serum of patient 41
  IgE (OD): — (Dashes indicate reactivities below the cut-off level (OD=0.050))
[1]; serum of patient 42
  IgE (OD): — (Dashes indicate reactivities below the cut-off level (OD=0.050))
[1]; serum of patient 43
  IgE (OD): — (Dashes indicate reactivities below the cut-off level (OD=0.050))
[1]; serum of patient 44
  IgE (OD): — (Dashes indicate reactivities below the cut-off level (OD=0.050))
[1]; serum of patient 45
  IgE (OD): — (Dashes indicate reactivities below the cut-off level (OD=0.050))
[1]; serum of patient 46
  IgE (OD): — (Dashes indicate reactivities below the cut-off level (OD=0.050))
[1]; serum of patient 47
  IgE (OD): — (Dashes indicate reactivities below the cut-off level (OD=0.050))
[1]; serum of patient 48
  IgE (OD): — (Dashes indicate reactivities below the cut-off level (OD=0.050))
[1]; serum of patient 49
  IgE (OD): — (Dashes indicate reactivities below the cut-off level (OD=0.050))
[1]; serum of patient 50
  IgE (OD): — (Dashes indicate reactivities below the cut-off level (OD=0.050))
[1]; serum of patient 51
  IgE (OD): — (Dashes indicate reactivities below the cut-off level (OD=0.050))
[1]; serum of patient 52
  IgE (OD): — (Dashes indicate reactivities below the cut-off level (OD=0.050))
[1]; serum of patient 53
  IgE (OD): — (Dashes indicate reactivities below the cut-off level (OD=0.050))
[1]; serum of patient 54
  IgE (OD): — (Dashes indicate reactivities below the cut-off level (OD=0.050))
[1]; serum of patient 55
  IgE (OD): — (Dashes indicate reactivities below the cut-off level (OD=0.050))
[1]; serum of patient 56
  IgE (OD): — (Dashes indicate reactivities below the cut-off level (OD=0.050))
[1]; serum of patient 57
  IgE (OD): — (Dashes indicate reactivities below the cut-off level (OD=0.050))
[1]; serum of patient 58
  IgE (OD): — (Dashes indicate reactivities below the cut-off level (OD=0.050))
[1]; serum of patient 59
  IgE (OD): — (Dashes indicate reactivities below the cut-off level (OD=0.050))
[1]; serum of patient 60
  IgE (OD): — (Dashes indicate reactivities below the cut-off level (OD=0.050))
[2]; individual 1
  mean wheal diameter: 0 mm
[2]; individual 2
  mean wheal diameter: 0 mm
[2]; individual 3
  mean wheal diameter: 0 mm
[2]; individual 4
  mean wheal diameter: 0 mm
[2]; individual 5
  mean wheal diameter: 0 mm
[2]; individual 6 (allergic, without birch pollen allergy)
  mean wheal diameter: 0 mm

— patent US7244431B2, “Allergy vaccines and their preparation” (priority 2000, dated 2007)
